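Grown in 96-well plates, cells were treated for 48 hours with each compound at five concentrations. Insufficient inhibition: endpoint recorded as highest concentration tested. TGI: total growth inhibition.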
Experiments:
Assay in all cases: NCI-60 cell line screen, 48 h
786-0 renal = system: 786-0 renal
A549 NSCLC = system: A549 NSCLC
ACHN renal = system: ACHN renal
BT-549 breast = system: BT-549 breast
CAKI-1 renal = system: CAKI-1 renal
CCRF-CEM leukemia = system: CCRF-CEM leukemia
COLO 205 colon = system: COLO 205 colon
DU-145 prostate = system: DU-145 prostate
EKVX NSCLC = system: EKVX NSCLC
HCC-2998 colon = system: HCC-2998 colon
HCT-116 colon = system: HCT-116 colon
HCT-15 colon = system: HCT-15 colon
HL-60(TB) leukemia = system: HL-60(TB) leukemia
HOP-62 NSCLC = system: HOP-62 NSCLC
HS 578T breast = system: HS 578T breast
HT29 colon = system: HT29 colon
IGROV1 ovarian = system: IGROV1 ovarian
K-562 leukemia = system: K-562 leukemia
KM12 colon = system: KM12 colon
LOX IMVI melanoma = system: LOX IMVI melanoma
M14 melanoma = system: M14 melanoma
MALME-3M melanoma = system: MALME-3M melanoma
MCF7 breast = system: MCF7 breast
MDA-MB-231 breast = system: MDA-MB-231 breast
MDA-MB-435 = system: MDA-MB-435
MDA-N = system: MDA-N
MOLT-4 leukemia = system: MOLT-4 leukemia
NCI-H226 lung = system: NCI-H226 lung
NCI-H23 lung = system: NCI-H23 lung
NCI-H460 lung = system: NCI-H460 lung
NCI-H522 lung = system: NCI-H522 lung
NCI/ADR-RES ovarian = system: NCI/ADR-RES ovarian
OVCAR-3 ovarian = system: OVCAR-3 ovarian
OVCAR-4 ovarian = system: OVCAR-4 ovarian
OVCAR-5 ovarian = system: OVCAR-5 ovarian
OVCAR-8 ovarian = system: OVCAR-8 ovarian
PC-3 prostate = system: PC-3 prostate
RPMI-8226 leukemia = system: RPMI-8226 leukemia
RXF 393 renal = system: RXF 393 renal
SF-268 CNS = system: SF-268 CNS
SF-295 CNS = system: SF-295 CNS
SF-539 CNS = system: SF-539 CNS
SK-MEL-2 melanoma = system: SK-MEL-2 melanoma
SK-MEL-28 melanoma = system: SK-MEL-28 melanoma
SK-MEL-5 melanoma = system: SK-MEL-5 melanoma
SK-OV-3 ovarian = system: SK-OV-3 ovarian
SN12C renal = system: SN12C renal
SNB-19 CNS = system: SNB-19 CNS
SNB-75 CNS = system: SNB-75 CNS
SW-620 colon = system: SW-620 colon
T-47D breast = system: T-47D breast
TK-10 renal = system: TK-10 renal
U251 CNS = system: U251 CNS
UACC-257 melanoma = system: UACC-257 melanoma
UACC-62 melanoma = system: UACC-62 melanoma
UO-31 renal = system: UO-31 renal
A498 renal = system: A498 renal
HOP-92 NSCLC = system: HOP-92 NSCLC
SR leukemia = system: SR leukemia

Measured: TGI

NNC(=O)c1ccccc1Nc1ccccc1C(=O)NN
> 100 µM: 786-0 renal | A549 NSCLC | ACHN renal | BT-549 breast | CAKI-1 renal | CCRF-CEM leukemia | COLO 205 colon | DU-145 prostate | EKVX NSCLC | HCC-2998 colon | HCT-116 colon | HCT-15 colon | HL-60(TB) leukemia | HOP-62 NSCLC | HS 578T breast | HT29 colon | IGROV1 ovarian | K-562 leukemia | KM12 colon | LOX IMVI melanoma | M14 melanoma | MALME-3M melanoma | MCF7 breast | MDA-MB-231 breast | MDA-MB-435 | MDA-N | MOLT-4 leukemia | NCI-H226 lung | NCI-H23 lung | NCI-H460 lung | NCI-H522 lung | NCI/ADR-RES ovarian | OVCAR-3 ovarian | OVCAR-4 ovarian | OVCAR-5 ovarian | OVCAR-8 ovarian | PC-3 prostate | RPMI-8226 leukemia | RXF 393 renal | SF-268 CNS | SF-295 CNS | SF-539 CNS | SK-MEL-2 melanoma | SK-MEL-28 melanoma | SK-MEL-5 melanoma | SK-OV-3 ovarian | SN12C renal | SNB-19 CNS | SNB-75 CNS | SW-620 colon | T-47D breast | TK-10 renal | U251 CNS | UACC-257 melanoma | UACC-62 melanoma | UO-31 renal

COc1[nH]c(C(Cl)(Cl)Cl)c(Cl)c(=O)c1Cl
> 100 µM: 786-0 renal | A498 renal | A549 NSCLC | ACHN renal | BT-549 breast | CAKI-1 renal | CCRF-CEM leukemia | COLO 205 colon | DU-145 prostate | EKVX NSCLC | HCC-2998 colon | HCT-116 colon | HCT-15 colon | HL-60(TB) leukemia | HOP-62 NSCLC | HOP-92 NSCLC | HT29 colon | IGROV1 ovarian | K-562 leukemia | KM12 colon | LOX IMVI melanoma | MALME-3M melanoma | MCF7 breast | MDA-MB-231 breast | MDA-MB-435 | MDA-N | MOLT-4 leukemia | NCI-H226 lung | NCI-H23 lung | NCI-H460 lung | NCI-H522 lung | NCI/ADR-RES ovarian | OVCAR-3 ovarian | OVCAR-4 ovarian | OVCAR-5 ovarian | OVCAR-8 ovarian | PC-3 prostate | RPMI-8226 leukemia | SF-295 CNS | SF-539 CNS | SK-MEL-2 melanoma | SK-MEL-28 melanoma | SK-MEL-5 melanoma | SK-OV-3 ovarian | SN12C renal | SNB-19 CNS | SR leukemia | SW-620 colon | T-47D breast | TK-10 renal | U251 CNS | UACC-257 melanoma | UACC-62 melanoma | UO-31 renal
